Key:
[1] = system: G1H-G93A transgenic mice; experiment: Clinical symptomatological evaluation (day of onset, survival period, disease period, stage periods); format: in vivo, mouse; settings: for time periods for the respective stages in comparison to placebo group / disease period extending effect in comparison to placebo group / onset delaying effect in comparison to placebo group / survival period extending effect in comparison to placebo group: Mann-Whitney's U test; for disease period extending effect in comparison to placebo group / onset delaying effect in comparison to placebo group / survival period extending effect in comparison to placebo group: log-rank test; for day of onset / disease period / survival period / time period of clinical symptomatological stage 1 / time period of clinical symptomatological stage 2 / time period of clinical symptomatological stage 3 / time period of clinical symptomatological stage 4 / time period of clinical symptomatological stage 5: average±SD
Procedure: 1) The procedure of concentration adjustment, and the amount and the procedure of administration of the compound (a) were as described below. As a base, 0.5% methylcellulose is prepared. 5 mg of the compound (a) is pulverized in an agate mortar, and then a small amount of 0.5% methylcellulose is added to form a complete suspension. Subsequently, a small amount of 0.5% methylcellulose is added gradually, so that finally 5 mg of the compound (a) is suspended in 10 mL of 0.5% methylcellulose. A sample of 5 mg of compound (a)/10 mL of 0.5% methylcellulose (5 mg/10 mL) was prepared by the above-described procedure, and thus the compound (a) was orally administered once a day in a dose of 5 mg per kg of the mouse body weight (5 mg/kg).
As the experimental animal, male transgenic mice over-expressing a high copy number (25 copies) of mutated human SOD1 gene with a G93A point mutation, i.e., B6SJL-TgN [SOD1-G93A]1Gur (G1H-G93A transgenic mice, JR2726; Hemizygote) (Gurney M E, et al., Science, 264, 1772-1775, 1994), were purchased from Jackson Laboratory (Bar Harbor, USA) and used. At the same time, wild-type male mice from the same litter, B6SJL-TgN[SOD1-G93A]1Gur (Wild-type), were also purchased from Jackson Laboratory and used.
The mice were subjected to a clinical symptomatological evaluation everyday. The clinical symptomatological evaluation was performed from one week after the arrival from Jackson Laboratory. […] The day of onset, the survival period and the disease period were indicated by the number of days. In regard to the indication of the number of days of the disease period, one day (one disease day) corresponds to within 24 hours from the onset (the “onset” is determined by the observation of the clinical symptomatological evaluation stage 1), and two days (two disease days) corresponds to more than 24 hours after and within 48 hours from the onset. Subsequent disease days after the onset were determined in the same manner.
The mice were divided into seven experimental groups, to which a placebo, the compound (a), compound (b), compound (c) or allopurinol was administered. That is, the seven groups consist of: an experimental group administered with placebo; a treatment experimental group administered with compound (a) before onset; a treatment experimental group administered with compound (a) after onset; a treatment experimental group administered with compound (b) before onset; a treatment experimental group administered with compound (c) before onset; a treatment experimental group administered with compound (c) after onset; and a treatment group administered with allopurinol before onset. Details of the respective groups will be described in the following.
Ten G1H-G93A transgenic mice were used. From the 80th day after birth, 5 mg/kg of the compound (a) was orally administered everyday. […]
Ten G1H-G93A transgenic mice were used. From the 80th day after birth, 5 mg/kg of the compound (b) was orally administered everyday.
Ten G1H-G93A transgenic mice were used. From the 80th day after birth, 5 mg/kg of the compound (c) was orally administered everyday. […]
Ten G1H-G93A transgenic mice were used. From the 80th day after birth, 5 mg/kg of allopurinol was orally administered everyday.
In regard to the results of the clinical symptomatological evaluation, the day of onset, the survival period (days taken to show quadriplegia and to reach the moribund state), the disease period (days taken to show quadriplegia and to reach the moribund state, from the day of onset), and the time periods for the respective stages of the clinical symptomatological evaluation, were indicated by the average±standard deviation. In regard to the results of the exercise tolerance test, the score values of the respective exercise tolerance tests, including the extension reflex test, inclined plane test, footprint test, rotarod test and beam balance test, were indicated by the average±standard deviation. […]

[2] = system: G1H-G93A transgenic mice; experiment: Exercise tolerance test: rotarod test; format: in vivo, mouse; settings: for Rotarod test score: 5 mg/kg oral daily from 80th day (before onset), score 0-3; for effect in rotarod test as compared to placebo group: 105th, 110th and 115th day, 5 mg/kg oral daily from 80th day after birth, Mann-Whitney's U test
Procedure: The following five kinds of exercise tolerance tests were conducted every fifth day from the 70th day after birth to evaluate the ability to exercise in the respective exercise tolerance tests. That is, the days for the exercise tolerance tests were every fifth days, such as the 70th day, 75th day, 80th day, 85th day and so on, after birth. The exercise tolerance tests were conducted throughout the survival period, and the post-mortem evaluation was based on the definitions of the following five kinds of exercise tolerance tests.
The apparatus used in the Rotarod test (Rota Rod Treadmill type 7600, Ugo Basile Co., Milano, Italy) is a rotating axle having a diameter of 3.6 cm, and this rotating axle is set up so as to have 16 revolution per minute (one rotation: 3.75 seconds). The period for which a mouse can remain on a rotating axle without falling is measured. The evaluation of the rotarod test for the mouse was performed based on the following criteria: Score 0=The time exceeds 60 seconds; Score 1=The time is more than 30 seconds and 60 seconds or less; Score 2=The time is more than 4 seconds and 30 seconds or less; and Score 3=The time is 4 seconds or less. The post-mortem evaluation of the rotarod test is defined as score 3.

[3] = 5 mg/kg oral daily from 80th day after birth (before onset)
[4] = 5 mg/kg oral daily from the day of onset (after onset)
[5] = 5 mg/kg oral once a day from 80th day after birth (before onset)
[6] = 5 mg/kg oral once a day from the onset (after onset)

SMILES | time periods for the respective stages in comparison to placebo group [1, 3] | disease period extending effect in comparison to placebo group [1, 3] | onset delaying effect in comparison to placebo group [1, 3] | survival period extending effect in comparison to placebo group [1, 3] | day of onset [1, 5] [days] | disease period [1, 5] [days] | survival period [1, 5] [days] | time period of clinical symptomatological stage 1 [1, 5] [days] | time period of clinical symptomatological stage 2 [1, 5] [days] | time period of clinical symptomatological stage 3 [1, 5] [days] | time period of clinical symptomatological stage 4 [1, 5] [days] | time period of clinical symptomatological stage 5 [1, 5] [days] | Rotarod test score ([2]; 70th day after birth, 5 mg/kg) | Rotarod test score ([2]; 75th day after birth, 5 mg/kg) | Rotarod test score ([2]; 80th day after birth, 5 mg/kg) | Rotarod test score ([2]; 85th day after birth, 5 mg/kg) | Rotarod test score ([2]; 90th day after birth, 5 mg/kg) | Rotarod test score ([2]; 95th day after birth, 5 mg/kg) | Rotarod test score ([2]; 100th day after birth, 5 mg/kg) | Rotarod test score ([2]; 105th day after birth, 5 mg/kg) | other results
CC(C)(C)COc1ccc(-n2cc(C(=O)O)cn2)cc1C#N [compound (a), 1-[3-cyano-4-(2,2-dimethylpropoxy)phenyl]-1H-pyrazole-4-carboxylic acid] | extended period of respective stages with significant difference | significant extension of the disease period | significant delaying of the day of onset | significant extension of the survival period | 113.0 ± 4.8 | 24.9 ± 3.1 | 136.9 ± 3.8 | 7.5±0.7 | 6.6±1.2 | 5.4±1.1 | 3.6±0.7 | 1.8±0.4 | 0.0±0.0 | 0.0±0.0 | 0.0±0.0 | 0.0±0.0 | 0.0±0.0 | 0.0±0.0 | 0.0±0.0 | 0.0±0.0 | time periods for the respective stages in comparison to placebo group [1, 4]: extended period of stage 3 (P<0.05, Mann-Whitney's U test) and stage 4 (P<0.05, Mann-Whitney's U test) with significant differences; disease period extending effect in comparison to placebo group [1, 4]: significant extension of the disease period; survival period extending effect in comparison to placebo group [1, 4]: significant extension of the survival period; day of onset [1, 6]: 99.8 ± 2.4 days; disease period [1, 6]: 23.9 ± 1.7 days; survival period [1, 6]: 122.7 ± 2.1 days; time period of clinical symptomatological stage 1 [1, 6]: 7.3±0.7 days; time period of clinical symptomatological stage 2 [1, 6]: 6.0±0.7 days; time period of clinical symptomatological stage 3 [1, 6]: 5.3±0.9 days; time period of clinical symptomatological stage 4 [1, 6]: 3.5±0.5 days; time period of clinical symptomatological stage 5 [1, 6]: 1.8±0.4 days; effect in rotarod test as compared to placebo group [2]: significant effects; Rotarod test score ([2]; 110th day after birth, 5 mg/kg): 0.3±0.7; Rotarod test score ([2]; 115th day after birth, 5 mg/kg): 1.2±1.3; Rotarod test score ([2]; 120th day after birth, 5 mg/kg): 2.2±0.9; Rotarod test score ([2]; 125th day after birth, 5 mg/kg): 2.7±0.5; Rotarod test score ([2]; 130th day after birth): 3.0 ± 0.0; Rotarod test score ([2]; 135th day after birth): 3.0 ± 0.0; Rotarod test score ([2]; 140th day after birth): 3.0 ± 0.0; Rotarod test score ([2]; from the 130th day to 140th day after birth): 3.0±0.0
N#Cc1cc(-c2n[nH]c(-c3ccncc3)n2)ccn1 [compound (b), 4-(5-pyridin-4-yl-1H-[1,2,4]triazol-3-yl)pyridine-2-carbonitrile] | extended period of the respective stages with significant difference | significant extension of the disease period | significant delaying of the day of onset | significant extension of the survival period | 111.6 ± 3.7 | 24.3 ± 3.4 | 134.9 ± 3.4 | 7.4±0.7 | 6.4±1.2 | 5.3±1.2 | 3.5±0.5 | 1.7±0.5 | 0.0±0.0 | 0.0±0.0 | 0.0±0.0 | 0.0±0.0 | 0.0±0.0 | 0.0±0.0 | 0.0±0.0 | 0.0±0.0 | effect in rotarod test as compared to placebo group [2]: significant effects; Rotarod test score ([2]; 110th day after birth, 5 mg/kg): 0.5±0.7; Rotarod test score ([2]; 115th day after birth, 5 mg/kg): 1.3±1.1; Rotarod test score ([2]; 120th day after birth, 5 mg/kg): 2.5±0.5; Rotarod test score ([2]; 125th day after birth): 3.0 ± 0.0; Rotarod test score ([2]; 130th day after birth): 3.0 ± 0.0; Rotarod test score ([2]; 135th day after birth): 3.0 ± 0.0; Rotarod test score ([2]; 140th day after birth): 3.0 ± 0.0; Rotarod test score ([2]; from the 125th day to 140th day after birth): 3.0±0.0
